Patent US11066414B2, “Cot modulators and methods of use thereof” (Gilead Sciences, Inc., priority 2015, dated 2021)
Like-named read-outs stand apart in the source and are kept apart here.

Test system: TNFα
Assay: Cot Monocyte TNFα Cell Based Assay
Conditions: for IC50/EC50 [nM]: EC50 (TNFα): second value of the cell IC50/EC50, TNFα by TR-FRET
[1] = Homo sapiens, Monocyte, read-out: EC50 TNF, LPS-stimulated human monocytes, TNFα

Row | EC50 [1] [nM] | Compound | other results
1 |  | 6-(((6-fluoro-2-methylpyridin-3-yl)(1-((1- (trifluoromethyl)cyclopropyl)-1H-1,2,3- triazol-4-yl)methyl)amino)-8-(3-hydroxy- 3-methylbutyl-1-yl)-4- (neopentylamino)quinoline-3-carbonitrile [Example 982] | EC50 (read-out: EC50 TNF, LPS-stimulated human monocytes, TNFα TR-FRET): 1000 nM
2 |  | CCN1CCC(n2cc(CNc3cc(Cl)c4ncc(C#N)c(Nc5ccc(F)c(Cl)c5)c4c3)nn2)CC1 [Comparative Example 1, reference compound] | IC50/EC50 [nM]: EC50 (TNFα) (LPS-stimulated human monocytes): 310 nM
3 |  | Cn1cc(CNc2cc(Cl)c3ncc(C#N)c(Nc4ccc(F)c(Cl)c4)c3c2)nn1 [Comparative Example 3, reference compound] | IC50/EC50 [nM]: EC50 (TNFα) (LPS-stimulated human monocytes): > 10000 nM
4 | 88 | CC(C)(C)N1CCC(n2cc([C@@H](Nc3cc(Cl)c4ncc(C#N)c(Nc5ccc(F)c(Cl)c5)c4c3)c3cccc4ncsc34)nn2)CC1 [Example 52, (S)-6-((benzo[d]thiazol-7-yl(1-(1-(tert-butyl)piperidin-4-yl)-1H-1,2,3-triazol-4-yl)methyl)amino)-8-chloro-4-((3-chloro-4-fluorophenyl)amino)quinoline-3-carbonitrile] | 
5 | 131 | CC(C)(C)N1CCC(n2cc([C@@H](Nc3cc(Cl)c4ncc(C#N)c(Nc5ccc(F)c(Cl)c5)c4c3)c3cccc4c3CCN4)nn2)CC1 [Example 60, (S)-6-(((1-(1-(tert-butyl)piperidin-4-yl)-1H-1,2,3-triazol-4-yl)(indolin-4-yl)methyl)amino)-8-chloro-4-((3-chloro-4-fluorophenyl)amino)quinoline-3-carbonitrile] | 
6 |  | CC(C)(C)N1CCC(n2cc([C@@H](Nc3cc(Cl)c4ncc(C#N)c(Nc5ccc(F)c(Cl)c5)c4c3)c3ccc4ncsc4c3)nn2)CC1 [Example 63, (S)-6-((benzo[d]thiazol-6-yl(1-(1-(tert-butyl)pipcridin-4-yl)-1H-1,2,3-triazol-4-yl)methyl)amino)-8-chloro-4-((3-chloro-4-fluorophenyl)amino)quinoline-3-carbonitrile] | EC50 (read-out: EC50 TNF, LPS-stimulated human monocytes, TNFα): 257 nM
7 | 538 | CCN1CCC(n2cc([C@@H](Nc3cc(Cl)c4ncc(C#N)c(Nc5ccc(F)c(Cl)c5)c4c3)c3ccc4cccnc4c3)nn2)CC1 [Example 65, (S)-8-chloro-4-((3-chloro-4-fluorophenyl)amino)-6-(((1-(1-ethylpiperidin-4-yl)-1H-1,2,3-triazol-4-yl)(quinolin-7-yl)methyl)amino)quinoline-3-carbonitrile] | 
8 | 981 | CC(C)(C)CNc1c(C#N)cnc2c(C#N)cc(N[C@H](c3cn(C4CC4)nn3)c3cccc4c3CNC4=O)cc12 [Example 76, (S)-6-(((1-cyclopropyl-1H-1,2,3-triazol-4-yl)(1-oxoisoindolin-4-yl)methyl)amino)-4-(neopentylamino)quinoline-3,8-dicarbonitrile] | 
9 | 253 | [2H]C(Nc1cc(Cl)c2ncc(C#N)c(N[C@H](CC)c3ccccc3)c2c1)(c1cn(C2CC2)nn1)c1cc(F)cnc1C (stereo partly drawn) [Example 113, 8-chloro-6-(((1-cyclopropyl-1H-1,2,3-triazol-4-yl)(5-fluoro-2-methylpyridin-3-yl)methyl-d)amino)-4-(((R)-1-phenylpropyl)amino)quinoline-3-carbonitrile] | 
10 | 978 | N#Cc1cnc2c(Cl)cc(N[C@H](c3cn(C4CC4)nn3)c3cnccc3Cl)cc2c1Nc1cnc(F)c(F)c1 [Example 133, (S)-8-chloro-6-(((4-chloropyridin-3-yl)(1-cyclopropyl-1H-1,2,3-triazol-4-yl)methyl)amino)-4-((5,6-difluoropyridin-3-yl)amino)quinoline-3-carbonitrile] | 
11 | 660 | [2H][C@](Nc1cc(Cl)c2ncc(C#N)c(NCC(C)(C)C)c2c1)(c1ccc(F)nc1)c1c[nH]nn1 [Example 135, (S)-8-chloro-6-(((6-fluoropyridin-3-yl)(1H-1,2,3-triazol-4-yl)methyl-d)amino)-4-(neopentylamino)quinoline-3-carbonitrile] | 
